Experimental findings from patent US12503476B2, “Ring-fused 2-pyridone compounds, methods for preparation thereof and their use in the treatment and/or prevention of a disease involving gram-positive bacteria” (QURETECH BIO AB, priority 2020, dated 2025) are described below.

Values after ≈ are worked out from the molar mass of the structure shown. Where two headings read alike, the source gives them in different places.

For one assay, the system named is E. faecalis. The assay is described as follows: Minimum Inhibitory Concentration (MIC) assay, E. faecalis. The class given is cell-based, Enterococcus faecalis. Particulars: for MIC: Enterococcus faecalis, first figure of MIC/MBC, read-out: MIC for E. faecalis; for Growth inhibition of the pathogen of interest compared to the compound of Example 14 in WO 2018/229141: conclusion from Table 3 (E. faecalis and MRSA). The method, then: (§1) The cultures (200 μl) were incubated at 37° C. for 24 h. […] The MIC was measured in micromolar concentration, i.e. μM. Objectively, this was determined by measuring the optical density (i.e. OD) of the test cultures at 600 nm using a spectrophotometer. As used herein, OD600 stands for optical density at a wavelength of 600 nm (i.e. 600 nanometers).

Assay [1] concerns MRSA. Nature of the assay: Minimum Inhibitory Concentration (MIC) assay, MRSA. Particulars: Staphylococcus aureus, MRSA, 24 h, Table 3, compound alone, no antibiotic, 37° C., OD600, first figure of MIC/MBC, n.d. = activity not observed at the concentrations tested, read-out: MIC for MRSA. Type of assay: cell-based, Methicillin-resistant Staphylococcus aureus. The method, then:
as §1

The next assay has as its system E. faecalis OG1RF. Nature of the assay: Combined activity with gentamicin, vancomycin or ampicillin, E. faecalis OG1RF. The class given is cell-based, Enterococcus faecalis. The note with it: gentamicin 16 μg/ml; for Synergistic effect when combined with gentamicin: 24 h. As to the method:
[…]. The concentrations used in the experiments with E. faecalis OG1RF were 16 μg/ml gentamicin, 1 μg/ml vancomycin or 1 μg/ml ampicillin. In experiments where combinations were tested against MRSA 1369, 0.05 μg/ml gentamicin, 1 μg/ml vancomycin or 16 μg/ml ampicillin was used.
Bacterial cultures (190 μl) at a starting OD=0.001 at OD600 were incubated together with either subinhibitory concentrations of gentamicin/vancomycin/ampicillin or compound alone, or a combination of the two. The cultures (200 μl) were incubated at 37° C. for 24 h. A control sample without compound and gentamicin/vancomycin/ampicillin but containing compound vehicle (DMSO) and gentamicin/vancomycin/ampicillin vehicle (MQ water) was performed the same way. After 24 h, the effect on bacterial growth compared to untreated control samples was determined by measuring optical density at 600 nm with a spectrophotometer.
[…]. MIC/MBC values for the compounds administered alone are also shown for comparison. Unless otherwise stated, the compound was provided in a concentration of 1 μM.

Assay [2] has as its system MRSA. Nature of the assay: Minimum Bactericidal Concentration (MBC) assay, MRSA. Particulars: Staphylococcus aureus, MRSA, read-out: MBC for MRSA, Table 3; compound alone, no antibiotic; MIC cultures plated on BHI; second figure of MIC/MBC; n.d. = activity not observed at the concentrations tested.
[3] abbreviates: 24 h, Table 3, compound alone, no antibiotic, 24 h, 37° C., OD600, n.d. = activity not observed at the concentrations tested.
[4] abbreviates: subinhibitory compound 1-4 μM, OD600 24 h.

In the case of `O=C(O)C12C[C@H](c3cc(Cl)cc(Cl)c3)C1Sc1c(C3CC3)c(Cc3cccc4ccccc34)cc(=O)n12` (stereo partly shown) [Example 16], the MIC in the assay with E. faecalis (setting [3]) and in the assay with MRSA [1] was 10 µM (≈ 5.48 µg/mL) each time.
As for `CCCOc1ccc([C@@H]2CC3(C(=O)O)C2Sc2c(C4CC4)c(Cc4cccc5ccccc45)cc(=O)n23)cc1C` (stereo partly shown) [Example 22], in the assay on E. faecalis (setting [3]), the MIC (commonly the least concentration at which growth counts as inhibited) is 4 µM (≈ 2.21 µg/mL). Further, the “Growth inhibition of the pathogen of interest compared to the compound of Example 14 in WO 2018/229141” value with E. faecalis (compound alone) was “substantially similar extent or to a higher extent”. In the assay with MRSA [1], the MIC is 4 µM (≈ 2.21 µg/mL). In addition, in the assay on E. faecalis OG1RF (setting [4]), the “E. faecalis activity, combination with gentamicin compared to gentamicin alone, compound alone and comparative example alone” value was “much larger extent”; the “E. faecalis activity, combination with gentamicin compared to the combination of the comparative example and gentamicin” value is recorded as “much larger extent”. The MBC (commonly the smallest concentration meeting the test's criterion for killing) in the assay with MRSA [2] stood at 4 µM (≈ 2.21 µg/mL).
`CCCCOc1ccc([C@@H]2CC3(C(=O)O)C2Sc2c(C4CC4)c(Cc4cccc5ccccc45)cc(=O)n23)cc1C` (stereo partly shown) [Example 23]: the MIC with E. faecalis (setting [3]) worked out at 3 µM (≈ 1.7 µg/mL); in the assay with E. faecalis (Table 4, compound administered alone, n.d. = activity not observed) it was 3 µM (≈ 1.7 µg/mL); in the assay on MRSA [1], 3 µM (≈ 1.7 µg/mL). For the same compound, in the assay on E. faecalis (compound alone), the “Growth inhibition of the pathogen of interest compared to the compound of Example 14 in WO 2018/229141” value is “substantially similar extent or to a higher extent”. Besides, the “OD600 at 24 h when combined with gentamicin” value (“OD600 at 24 h when combined” below) with E. faecalis OG1RF (compound 1 μM) is recorded as “OD600 = 0”. In the assay with E. faecalis OG1RF (compound 1 μM, n.d. = activity not observed), the “Synergistic effect when combined with gentamicin” value (shortened to “Synergistic effect when combined”) is “Yes”. Further, in the assay with MRSA [2], the MBC came to 5 µM (≈ 2.83 µg/mL).
In the case of `O=C(O)C12C[C@@H](Sc3ccccc3)C1Sc1c(C3CC3)c(Cc3cccc4ccccc34)cc(=O)n12` (stereo partly shown) [Example 27], the MIC with MRSA [1] is 10 µM (≈ 5.12 µg/mL).
On the same count and under the same terms, for `O=C(O)C12C[C@H](Sc3ccccc3)C1Sc1c(C3CC3)c(Cc3cccc4ccccc34)cc(=O)n12` (stereo partly shown) [Example 28] the value was 25 µM (≈ 12.8 µg/mL).
For `COc1c(Cc2cccc3ccccc23)c(N(C)C)c(=O)n2c1SC1[C@H](c3cccc(C(F)(F)F)c3)CC12C(=O)O` (stereo partly shown) [Example 29], the MIC with E. faecalis (setting [3]) came out at 25 µM (≈ 14.5 µg/mL); in the assay on MRSA [1] it was 7.5 µM (≈ 4.35 µg/mL). In addition, the MBC in the assay on MRSA [2] worked out at 7.5 µM (≈ 4.35 µg/mL).
For the compound `Cc1cc(C)cc([C@@H]2CC3(C(=O)O)C2Sc2c(C4CC4)c(Cc4cccc(Cl)c4Cl)cc(=O)n23)c1` (stereo partly shown) [Example 31], the MIC in the assay on MRSA [1] turned out to be 5 µM (≈ 2.63 µg/mL).
For `O=C(O)C12C[C@@H](c3c(Cl)cccc3Cl)C1Sc1c(C3CC3)c(Cc3cc4ccccc4s3)cc(=O)n12` (stereo partly shown) [Example 34], the MIC in the assay on MRSA [1] was 5 µM (≈ 2.77 µg/mL).
For the compound `O=c1cc(Cc2cccc3ccccc23)c(C2CC2)c2n1C(CCB(O)O)CS2` (stereo not shown) [Example 35], the MIC in the assay on MRSA [1] is 50 µM (≈ 20.3 µg/mL). Besides, in the assay on E. faecalis OG1RF (compound 25 μM), the “OD600 at 24 h when combined” value is recorded as “OD600 = 0” and the “Synergistic effect when combined” value is reported as “Yes”.
With `O=c1cc(Cc2cccc3ccccc23)c(-c2cccc(C(F)(F)F)c2)c2n1C(CCB(O)O)CS2` (stereo not shown) [Example 37], in the assay on MRSA [1], the MIC stood at 50 µM (≈ 25.5 µg/mL). In addition, in the assay with E. faecalis OG1RF (compound 10 μM), the “OD600 at 24 h when combined” value is listed as “OD600 = 0” and the “Synergistic effect when combined” value is listed as “Yes”.
